In ChEMBL document CHEMBL5038639, “Designed Peptide Inhibitors of STEP Phosphatase-GluA2 AMPA Receptor Interaction Enhance the Cognitive Performance in Rats” (J Med Chem, 2022):
The source made the active and inactive calls. The rule behind the calls is not given here. Square brackets hold non-standard residues; d marks the D form. Peptide text beside a SMILES is read from it. pY = N[C@@H](Cc1ccc(OP(=O)(O)O)cc1)C(=O)O

Columns and labels:
Rattus norvegicus [1] = species: Rattus norvegicus; test: Cognitive enhancing effect in Wistar rat model of scopolamine-induced reference memory impairment assessed as reduction in number of reference memory error at 15 uM by Radial arm maze task; format: functional, organism-based
Rattus norvegicus [2] = species: Rattus norvegicus; test: Cognitive enhancing effect in Wistar rat model of scopolamine-induced short term memory impairment assessed as increase in spontaneous alteration at 15 uM measured by Y-maze method; format: functional, organism-based
Rattus norvegicus [3] = species: Rattus norvegicus; test: Antidepressant activity in Wistar rat model of scopolamine-induced depressive like behavior assessed as decrease in immobility time at 15 uM measured after 24 hrs by forced swimming test; format: functional, organism-based
Rattus norvegicus [4] = species: Rattus norvegicus; test: Anxiolytic activity in scopolamine-induced Wistar rat assessed as increase in number of entries in open arm measured at 15 uM for 5 min by elevated plus maze test; format: functional, organism-based
Hippocampus [5] = test: Effect on hippocampal population spike in Wistar rat assessed as increase in spike area and slope at 15 uM measured after 2 hrs; format: functional, tissue-based
Homo sapiens = species: Homo sapiens; test: Inhibition of GluA2-STEP32 C/S mutant (unknown origin) protein-protein interaction at 0.1 to 1 mM by Western blotting based pulldown assay; conditions: dose 0.1-1 mM
HEK293 [6] = test: Inhibition of GluA2-STEP3 (unknown origin) protein-protein interaction expressed in HEK293 cells assessed as reduction in GluA2 dephosphorylation at pY876 residue at 0.1 mM incubated for 30 min by western blotting analysis; format: cell-based; conditions: Homo sapiens
Rattus norvegicus [7] = species: Rattus norvegicus; test: Antidepressant activity in Wistar rat model of scopolamine-induced depressive like behavior assessed as increased swimming time at 15 uM measured after 24 hrs by forced swimming test; format: functional, organism-based
Hippocampus [8] = test: Effect on hippocampal population spike in Wistar rat assessed as increase in amplitude at 15 uM measured after 3 hrs; format: functional, tissue-based
Rattus norvegicus [9] = species: Rattus norvegicus; test: Anxiolytic activity in scopolamine-induced Wistar rat assessed as increase in time spent in open arm measured at 15 uM for 5 min by elevated plus maze test; format: functional, organism-based
Rattus norvegicus [10] = species: Rattus norvegicus; test: Cognitive enhancing effect in Wistar rat model of scopolamine-induced working memory impairment assessed as reduction in number of working memory errors at 15 uM by Radial arm maze task; format: functional, organism-based
[11] = molecular target: T1, Tyrosine-protein phosphatase non-receptor type 2 (Homo sapiens) (UniProt P17706); test: Inhibition of TC-PTP (unknown origin) at 1 mM using pNPP as substrate
T1 sequence (whole entry): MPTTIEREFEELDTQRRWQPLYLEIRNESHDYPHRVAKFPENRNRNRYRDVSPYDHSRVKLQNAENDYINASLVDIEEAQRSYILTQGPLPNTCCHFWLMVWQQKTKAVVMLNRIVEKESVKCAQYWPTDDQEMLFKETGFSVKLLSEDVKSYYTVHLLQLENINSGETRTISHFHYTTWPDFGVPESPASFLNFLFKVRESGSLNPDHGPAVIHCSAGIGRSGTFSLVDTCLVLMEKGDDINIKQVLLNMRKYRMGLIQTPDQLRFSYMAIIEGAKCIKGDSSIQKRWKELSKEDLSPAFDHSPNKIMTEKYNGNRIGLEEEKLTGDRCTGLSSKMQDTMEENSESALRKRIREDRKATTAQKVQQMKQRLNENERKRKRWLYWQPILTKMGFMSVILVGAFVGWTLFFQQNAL

Hippocampus [12] = test: Effect on hippocampal population spike in Wistar rat assessed as increase in spike area and slope at 15 uM measured at 1 hr; format: functional, tissue-based
[13] = molecular target: T2, Tyrosine-protein phosphatase non-receptor type 1 (Homo sapiens) (UniProt P18031); test: Inhibition of […] (unknown origin) at 1 mM using pNPP as substrate
T2 sequence (whole entry): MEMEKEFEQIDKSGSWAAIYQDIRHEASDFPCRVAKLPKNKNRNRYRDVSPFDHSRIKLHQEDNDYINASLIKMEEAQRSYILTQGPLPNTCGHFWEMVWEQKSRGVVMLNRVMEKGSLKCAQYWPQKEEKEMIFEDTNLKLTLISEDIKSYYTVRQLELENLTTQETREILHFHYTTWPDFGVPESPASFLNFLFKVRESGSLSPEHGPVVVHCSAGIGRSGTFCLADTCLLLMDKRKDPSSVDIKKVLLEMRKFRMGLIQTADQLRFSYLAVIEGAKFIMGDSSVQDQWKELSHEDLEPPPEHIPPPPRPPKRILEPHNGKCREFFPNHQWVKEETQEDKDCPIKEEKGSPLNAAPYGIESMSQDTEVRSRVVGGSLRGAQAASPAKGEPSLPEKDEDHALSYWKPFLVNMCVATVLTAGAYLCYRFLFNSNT

Hippocampus [14] = test: Effect on hippocampal population spike in Wistar rat assessed as decrease in population spike area at 1.5 mM measured upto 3 hrs; format: functional, tissue-based; conditions: time hrs <=3
HEK293 [15] = test: Inhibition of GluA2-STEP3 (unknown origin) protein-protein interaction expressed in HEK293 cells assessed as reduction in GluA2 dephosphorylation at pY876 residue at 1 mM incubated for 30 min by western blotting analysis; format: cell-based; conditions: Homo sapiens
Rattus norvegicus [16] = test: Cognitive enhancing effect in Wistar rat model of scopolamine-induced short term memory impairment assessed as increase in spontaneous alteration at 5 mg/kg measured by Y-maze method; format: functional, organism-based
Rattus norvegicus [17] = test: Cognitive enhancing effect in Wistar rat model of scopolamine-induced working memory impairment assessed as reduction in number of working memory errors at 5 mg/kg by Radial arm maze task; format: functional, organism-based

`CC(=O)N[C@@H](Cc1ccc(O)cc1)C(=O)NCC(=O)N[C@@H](CCCNC(=N)N)C(=O)N[C@@H](CCCCN)C(=O)N[C@@H](CCCCN)C(=O)N[C@@H](CCCNC(=N)N)C(=O)N[C@@H](CCCNC(=N)N)C(=O)N[C@@H](CCC(N)=O)C(=O)N[C@@H](CCCNC(=N)N)C(=O)N[C@@H](CCCNC(=N)N)C(=O)N[C@@H](CCCNC(=N)N)C(=O)N[C@@H](CCC(=O)O)C(=O)NCC(=O)N[C@@H](Cc1ccc(O)cc1)C(=O)N[C@@H](CC(N)=O)C(=O)N[C@H](C(=O)N[C@@H](Cc1ccc(OP(=O)(O)O)cc1)C(=O)N[C@@H](CCC(=O)O)C(N)=O)C(C)C` (Ac-YGRKKRRQRRREGYNV[pY]E-NH2) was tested, and the Activity (Rattus norvegicus [1]) was “Active”, the Activity (Rattus norvegicus [2]) was “Active” and the Activity (Rattus norvegicus [3]) was “Active”. The Activity (Rattus norvegicus [4]) was “Active”, the Activity (Hippocampus [5]) was “inactive” and the inhibition (Homo sapiens) was “Active”. The inhibition (HEK293 [6]) was “Active”, the Activity (Rattus norvegicus [7]) was “Active” and the Activity (Hippocampus [8]) was “Active”. The Activity (Rattus norvegicus [9]) was “Active”, the Activity (Rattus norvegicus [10]) was “Active” and the inhibition [11] was “Active”. The Activity (Hippocampus [12]) was “Active”, the inhibition [13] was “Active” and the Activity (Hippocampus [14]) was “Active”. The inhibition (HEK293 [15]) was “Active”.
For `COc1cc2c(cc1OC)C(=O)C(CC1CCN(Cc3ccccc3)CC1)C2` (centres undefined), the Activity (Rattus norvegicus [16]) was “Active” and the Activity (Rattus norvegicus [17]) was “Active”.
In the case of `CC(=O)N[C@@H](Cc1ccc(O)cc1)C(=O)NCC(=O)N[C@@H](CCCNC(=N)N)C(=O)N[C@@H](CCCCN)C(=O)N[C@@H](CCCCN)C(=O)N[C@@H](CCCNC(=N)N)C(=O)N[C@@H](CCCNC(=N)N)C(=O)N[C@@H](CCC(N)=O)C(=O)N[C@@H](CCCNC(=N)N)C(=O)N[C@@H](CCCNC(=N)N)C(=O)N[C@@H](CCCNC(=N)N)C(=O)N[C@@H](CCC(=O)O)C(=O)NCC(=O)N[C@@H](Cc1ccc(O)cc1)C(=O)N[C@@H](CC(N)=O)C(=O)N[C@H](C(=O)N[C@@H](Cc1ccc(OP(=O)(O)O)cc1)C(N)=O)C(C)C` (Ac-YGRKKRRQRRREGYNV[pY]-NH2), the Activity (Rattus norvegicus [1]) is reported as “Active”, the Activity (Rattus norvegicus [2]) is reported as “Active” and the Activity (Rattus norvegicus [3]) is reported as “Active”. For the same molecule, the Activity (Rattus norvegicus [4]) was “Active”, the inhibition (Homo sapiens) was “Active” and the inhibition (HEK293 [6]) was “Active”. The Activity (Rattus norvegicus [7]) was “Active”, the Activity (Rattus norvegicus [9]) was “Active” and the Activity (Rattus norvegicus [10]) was “Active”. The inhibition [11] was “Active” and the inhibition [13] was “Active”.
Ac-YGRKKRRQRRRATYKEGYNVYG-NH2 was tested, and the Activity (Rattus norvegicus [1]) was “Active”, the Activity (Rattus norvegicus [2]) was “Active” and the Activity (Rattus norvegicus [3]) was “Active”. For the same molecule, the Activity (Rattus norvegicus [4]) was “Active”, the Activity (Rattus norvegicus [7]) was “Active” and the Activity (Rattus norvegicus [9]) was “Active”. For the same molecule, the Activity (Rattus norvegicus [10]) was “Active”, the inhibition [11] was “Active” and the inhibition [13] was “Active”.
With `CC(=O)N[C@@H](Cc1ccc(O)cc1)C(=O)NCC(=O)N[C@@H](CCCNC(=N)N)C(=O)N[C@@H](CCCCN)C(=O)N[C@@H](CCCCN)C(=O)N[C@@H](CCCNC(=N)N)C(=O)N[C@@H](CCCNC(=N)N)C(=O)N[C@@H](CCC(N)=O)C(=O)N[C@@H](CCCNC(=N)N)C(=O)N[C@@H](CCCNC(=N)N)C(=O)N[C@@H](CCCNC(=N)N)C(=O)N[C@@H](C)C(=O)N[C@H](C(=O)N[C@@H](Cc1ccc(O)cc1)C(=O)N[C@@H](CCCCN)C(=O)N[C@@H](CCC(=O)O)C(=O)NCC(=O)N[C@@H](Cc1ccc(O)cc1)C(=O)N[C@@H](CC(N)=O)C(=O)N[C@H](C(=O)N[C@@H](Cc1ccc(OP(=O)(O)O)cc1)C(=O)NCC(N)=O)C(C)C)[C@@H](C)O` (Ac-YGRKKRRQRRRATYKEGYNV[pY]G-NH2) the Activity (Rattus norvegicus [1]) was “Active”, the Activity (Rattus norvegicus [2]) was “Active” and the Activity (Rattus norvegicus [3]) was “Active”. For the same molecule, the Activity (Rattus norvegicus [4]) was “Active”, the inhibition (Homo sapiens) was “Active” and the inhibition (HEK293 [6]) was “Active”. For the same molecule, the Activity (Rattus norvegicus [7]) was “Active”, the Activity (Rattus norvegicus [9]) was “Active” and the Activity (Rattus norvegicus [10]) was “Active”. For the same molecule, the inhibition [11] was “Active” and the inhibition [13] was “Active”.
